{
  "source": "PubChem BioAssay AID270",
  "about": "(DTP/NCI, 2004)",
  "tested_on": "BDF1 mice, s.c. Lewis lung carcinoma, T/C %",
  "assay": "NCI In Vivo Anticancer Drug Screen. Data for tumor model Lewis Lung Carcinoma (subcutaneous) in B6D2F1 (BDF1) mice",
  "method_in_brief": "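Tumor-bearing mice were treated with test compound, and either survival or tumor size was recorded. Values are the treated-group measurement divided by that of the vehicle-treated control group.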",
  "note": "Where “and” joins values, the source holds several entries; their conditions need not be identical. Identical values can stand only once. Inconclusive results are not listed.",
  "data": [
    {"smiles": "CCc1ccccc1N1CCN(C(=O)c2cc(OC)c(OC)c(OC)c2)CC1", "values": [
      {"measurement": "T/C", "setting": "endpoint: mean tumor weight, dose: 25.0 mg/kg/injection, schedule: Q01DX011 (ip), vehicle: carboxymethylcellulose (CMC), higher = larger tumour", "result": "46 % of control and 48 % of control"}
    ]},
    {"smiles": "CO[C@@H]1[C@@H](OC2OC(C)C(OC3CC(C)(O)C(OC(=O)CC(C)C)C(C)O3)C(N(C)C)C2O)[C@@H](CC=O)C[C@@H](C)C(=O)/C=C/C2O[C@H]2C[C@@H](C)OC(=O)C[C@H]1OC(C)=O", "note": "(stereo not given in full)", "values": [
      {"measurement": "T/C", "setting": "endpoint: mean tumor weight, dose: 37.5 mg/kg/injection, schedule: Q01DX011 (ip), vehicle: other, higher = larger tumour", "result": "98 % of control"},
      {"measurement": "T/C", "setting": "endpoint: mean tumor weight, dose: 37.5 mg/kg/injection, schedule: Q01DX011 (ip), vehicle: saline, higher = larger tumour", "result": "83 % of control"},
      {"measurement": "T/C", "setting": "endpoint: mean tumor weight, dose: 75.0 mg/kg/injection, schedule: Q01DX011 (ip), vehicle: other, higher = larger tumour", "result": "76 % of control"},
      {"measurement": "T/C", "setting": "endpoint: mean tumor weight, dose: 150.0 mg/kg/injection, schedule: Q01DX011 (ip), vehicle: other, higher = larger tumour", "result": "47 % of control"},
      {"measurement": "T/C", "setting": "endpoint: mean tumor weight, dose: 150.0 mg/kg/injection, schedule: Q01DX011 (ip), vehicle: saline, higher = larger tumour", "result": "63 % of control and 81 % of control"},
      {"measurement": "T/C", "setting": "endpoint: mean tumor weight, dose: 300.0 mg/kg/injection, schedule: Q01DX011 (ip), vehicle: other, higher = larger tumour", "result": "15 % of control"},
      {"measurement": "T/C", "setting": "endpoint: mean tumor weight, dose: 300.0 mg/kg/injection, schedule: Q01DX011 (ip), vehicle: saline, higher = larger tumour", "result": "44 % of control and 48 % of control"}
    ]},
    {"smiles": "O=NN(CCCl)C(=O)NC1CCS(=O)(=O)CC1", "values": [
      {"measurement": "T/C", "setting": "endpoint: median survival time, dose: 5.0 mg/kg/injection, schedule: Q04DX004 (ip), vehicle: Klucel (hydroxypropylcellulose) (HPC), higher = longer survival", "result": "180 % of control"},
      {"measurement": "T/C", "setting": "endpoint: median survival time, dose: 7.0 mg/kg/injection, schedule: Q04DX004 (ip), vehicle: Klucel (hydroxypropylcellulose) (HPC), higher = longer survival", "result": "231 % of control"},
      {"measurement": "T/C", "setting": "endpoint: median survival time, dose: 7.0 mg/kg/injection, schedule: Q04DX004 (ip), vehicle: carboxymethylcellulose (CMC), higher = longer survival", "result": "121 % of control and 345 % of control"},
      {"measurement": "T/C", "setting": "endpoint: median survival time, dose: 8.5 mg/kg/injection, schedule: Q04DX004 (ip), vehicle: carboxymethylcellulose (CMC), higher = longer survival", "result": "109 % of control"},
      {"measurement": "T/C", "setting": "endpoint: median survival time, dose: 8.5 mg/kg/injection, schedule: Q07DX002 (ip), vehicle: carboxymethylcellulose (CMC), higher = longer survival", "result": "218 % of control"},
      {"measurement": "T/C", "setting": "endpoint: median survival time, dose: 10.0 mg/kg/injection, schedule: Q04DX004 (ip), vehicle: carboxymethylcellulose (CMC), higher = longer survival", "result": "123 % of control"},
      {"measurement": "T/C", "setting": "endpoint: median survival time, dose: 11.0 mg/kg/injection, schedule: Q07DX002 (ip), vehicle: carboxymethylcellulose (CMC), higher = longer survival", "result": "381 % of control"},
      {"measurement": "T/C", "setting": "endpoint: median survival time, dose: 14.0 mg/kg/injection, schedule: Q07DX002 (ip), vehicle: carboxymethylcellulose (CMC), higher = longer survival", "result": "200 % of control"}
    ]},
    {"smiles": "N/C(CCSc1ccccc1N=Cc1ccccc1O)=N/O", "values": [
      {"measurement": "T/C", "setting": "endpoint: median survival time, dose: 3.13 mg/kg/injection, schedule: Q01DX009 (ip), vehicle: olive oil, sesame oil, peanut oil, higher = longer survival", "result": "87 % of control"}
    ]},
    {"smiles": "O=C(/C(=C\\c1ccccc1)CN1CCOCC1)c1ccc(Br)cc1", "values": [
      {"measurement": "T/C", "setting": "endpoint: median survival time, dose: 50.0 mg/kg/injection, schedule: Q01DX009 (ip), vehicle: saline, higher = longer survival", "result": "113 % of control"},
      {"measurement": "T/C", "setting": "endpoint: median survival time, dose: 100.0 mg/kg/injection, schedule: Q01DX009 (ip), vehicle: saline, higher = longer survival", "result": "105 % of control"}
    ]},
    {"smiles": "COC(C(=O)C(O)C(C)O)C1Cc2cc3cc(OC4CC(OC(C)=O)C(OC5CC(O)C(OC)C(C)O5)C(C)O4)cc(O)c3c(O)c2C(=O)C1OC1CC(OC2CC(OC3CC(C)(O)C(OC(=O)C(C)C)C(C)O3)C(O)C(C)O2)C(O)C(C)O1", "note": "(stereo not given)", "values": [
      {"measurement": "T/C", "setting": "endpoint: median survival time, dose: 0.5 mg/kg/injection, schedule: Q01DX009 (ip), vehicle: saline with Tween-80, higher = longer survival", "result": "97 % of control"},
      {"measurement": "T/C", "setting": "endpoint: median survival time, dose: 2.0 mg/kg/injection, schedule: Q01DX009 (ip), vehicle: saline with Tween-80, higher = longer survival", "result": "94 % of control"}
    ]},
    {"smiles": "CCOC(=O)C1CCC(NC(=O)N(CCCl)N=O)CC1", "note": "(stereo not given)", "values": [
      {"measurement": "T/C", "setting": "endpoint: median survival time, dose: 8.6 mg/kg/injection, schedule: Q04DX004 (ip), vehicle: gum acacia, higher = longer survival", "result": "155 % of control"},
      {"measurement": "T/C", "setting": "endpoint: median survival time, dose: 13.0 mg/kg/injection, schedule: Q04DX004 (ip), vehicle: gum acacia, higher = longer survival", "result": "155 % of control and 168 % of control and 204 % of control"},
      {"measurement": "T/C", "setting": "endpoint: median survival time, dose: 15.0 mg/kg/injection, schedule: Q07DX002 (ip), vehicle: gum acacia, higher = longer survival", "result": "413 % of control"},
      {"measurement": "T/C", "setting": "endpoint: median survival time, dose: 18.0 mg/kg/injection, schedule: Q04DX004 (ip), vehicle: gum acacia, higher = longer survival", "result": "176 % of control and 252 % of control"},
      {"measurement": "T/C", "setting": "endpoint: median survival time, dose: 20.0 mg/kg/injection, schedule: Q04DX004 (ip), vehicle: gum acacia, higher = longer survival", "result": "181 % of control"},
      {"measurement": "T/C", "setting": "endpoint: median survival time, dose: 21.0 mg/kg/injection, schedule: Q07DX002 (ip), vehicle: gum acacia, higher = longer survival", "result": "413 % of control"},
      {"measurement": "T/C", "setting": "endpoint: median survival time, dose: 22.0 mg/kg/injection, schedule: Q07DX002 (ip), vehicle: gum acacia, higher = longer survival", "result": "191 % of control"},
      {"measurement": "T/C", "setting": "endpoint: median survival time, dose: 24.0 mg/kg/injection, schedule: Q07DX002 (ip), vehicle: gum acacia, higher = longer survival", "result": "232 % of control and 245 % of control"},
      {"measurement": "T/C", "setting": "endpoint: median survival time, dose: 28.0 mg/kg/injection, schedule: Q07DX002 (ip), vehicle: gum acacia, higher = longer survival", "result": "184 % of control"},
      {"measurement": "T/C", "setting": "endpoint: median survival time, dose: 30.0 mg/kg/injection, schedule: Q01DX001 (ip), vehicle: gum acacia, higher = longer survival", "result": "157 % of control and 166 % of control and 187 % of control"},
      {"measurement": "T/C", "setting": "endpoint: median survival time, dose: 30.0 mg/kg/injection, schedule: Q04DX004 (ip), vehicle: gum acacia, higher = longer survival", "result": "70 % of control"},
      {"measurement": "T/C", "setting": "endpoint: median survival time, dose: 33.0 mg/kg/injection, schedule: Q07DX002 (ip), vehicle: gum acacia, higher = longer survival", "result": "88 % of control and 90 % of control"},
      {"measurement": "T/C", "setting": "endpoint: median tumor weight (est.), dose: 15.0 mg/kg/injection, schedule: Q01DX001 (ip), vehicle: gum acacia, higher = larger tumour", "result": "16 % of control"},
      {"measurement": "T/C", "setting": "endpoint: median tumor weight (est.), dose: 29.0 mg/kg/injection, schedule: Q01DX001 (ip), vehicle: gum acacia, higher = larger tumour", "result": "8 % of control"}
    ]}
  ]
}
